The target of data set [1] is T1, PDZ2 of PSD-95 (Rattus norvegicus, UniProt P31016).
T1 construct: His tag (N); made in house; host or cells: Escherichia coli BL21 (DE3), pET14b
As to the kind of experiment: NMR chemical shift perturbation assay (1H-15N HSQC) of binding to 15N-labeled PDZ2. To be noted: for structural perturbation of PDZ2 (chemical shift of amide groups of Ser 173 and Ala 231 normalized to maximal shift with crude extract = 100%): 10-fold excess of compound relative to PDZ2. As to the method: In this specific non-limiting example, the PDZ-domain of recombinant PSD-95 was uniformly labeled with ^15N using the recombinant protein production method described. The ^15N-labeled PSD-95 was expressed in and purified from E. coli bacterial cells. The NMR spectra was acquired at 30° C. on Varian Inova 500 or 750 spectrometers each equipped with a 5 mm z-shielded gradient triple resonance probes. Lyophilized ^15N-labeled PDZ2 protein dissolved in 100 mM potassium phosphate buffer at pH 6.0, with a pure recombinant protein concentration of ˜0.1-0.2 mM (typically 0.5 ml in 100 mM phosphate buffer) for spectral analysis.
Since the identity of every resonances of the ^1H-^15N HSQC spectrum of PSD-95 PDZ domains is known, and the three dimensional structures of the PSD-95 PDZ domains could be elucidated, the quantitative values of compound-induced chemical shift changes for each amino acid residues of PSD-95 PDZ2 were computed using the equation: Δppm=[(ΔδHN)^2+(ΔδN·αN)^2]^1/2
The scaling factor αN used to normalize ^1H and ^15N chemical shifts was 0.17. ΔδHN corresponded to the change of the ^15N-bonded hydrogen chemical shift of a specific resonance, while ΔδN corresponded to the change of the ^15N chemical shift of that resonance.
In this method, the PDZ domain of PSD-95 is expressed recombinantly as described in Example 1 and uniformly labeled with ^15N using a recombinant protein production method. […]
Using preparation techniques mentioned above, a ^1H,^15N HSQC spectrum was recorded for each mixture of bound PDZ2 protein, and compared with the ^1H,^15N HSQC spectrum of free PSD-95 PDZ2 (˜0.1 mM in the same buffer). […]
The observation of chemical shift changes (with respect to the free PDZ2) as a result of mixing the protein with the herbal mixtures or pure compounds was scored as positive binding of compound(s) to PDS-95 PDZ2. […]
The binding affinity of the compounds to PDZ2 of PSD-95 was quantified by normalizing the chemical shift of the amide groups of Ser 173 and Ala 231 in relation to the maximal shift of these groups upon incubation with the crude extract (100%). […]

The format of data set [2] is physicochemical. The source says:
Both compounds were therefore dissolved in DMSO for the NMR titration experiments.

SMILES strings stand for the structures.

Experimental findings from patent US20050233377A1, “Drug screening method for the treatment of brain damage” (priority 2004, published 2005) are described below.

T1 sequence (P31016 156-249): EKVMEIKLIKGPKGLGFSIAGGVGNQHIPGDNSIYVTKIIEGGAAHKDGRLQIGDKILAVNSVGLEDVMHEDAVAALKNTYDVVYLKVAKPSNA

As to `O=C(O)[C@H]1O[C@@H](Oc2cc(O)c3c(=O)cc(-c4ccccc4)oc3c2O)[C@H](O)[C@@H](O)[C@@H]1O` [norwogonoside], the “structural perturbation of PDZ2 (chemical shift of amide groups of Ser 173 and Ala 231 normalized to maximal shift with crude extract = 100%)” value in data set [1] was “around 60%”.

Take `O=C(O)[C@H]1O[C@@H](Oc2cc3oc(-c4ccccc4)cc(=O)c3c(O)c2O)[C@H](O)[C@@H](O)[C@@H]1O` [baicalin]: the “solubility in H2O” value in data set [2] is “very poor solubility”. The “structural perturbation of PDZ2 (chemical shift of amide groups of Ser 173 and Ala 231 normalized to maximal shift with crude extract = 100%)” value in data set [1] is given as “around 60%”. In addition, the “chemical shift changes of PSD-95 PDZ2 HSQC spectrum relative to free PDZ2 (scored as positive binding)” value in data set [1] (15N-labeled PDZ2 0.1-0.2 mM, 100 mM phosphate buffer pH 6.0) is “significant chemical shift changes”. For the molecule `COc1c(O[C@@H]2O[C@H](C(=O)O)[C@@H](O)[C@H](O)[C@H]2O)cc(O)c2c(=O)cc(-c3ccccc3)oc12` [wogonoside], the “solubility in H2O” value in data set [2] is listed as “very poor solubility”.
